Results: US8063220B2, “Sulfonyl-quinoline derivatives” (Richter Gedeon Nyrt., priority 2007, dated 2011)

Key:
[1] = molecular target: mGluR1 receptors (Homo sapiens, UniProt Q13255); test: Activity on mGluR1 receptors (test not specified)
[2] = molecular target: mGluR5 receptors (Homo sapiens, UniProt P41594); test: Activity on mGluR5 receptors (test not specified)
[3] = molecular target: T1, rat mGluR1 (Rattus norvegicus, UniProt P23385); test: MGluR1 receptor binding test ([3H]R214127 displacement, rat cerebellar membrane preparation); details: rat mGluR1, [3H]R214127 3 nM; read-out: mGlu1 Ki
T1 construct: rat cerebellar membrane preparation was used; from tissue; host or cells: rat cerebellum (membrane preparation)
Summary of the method: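 Rat cerebellar membranes with 3 nM [3H]R214127; nonspecific binding defined by 1 μM R214127. IC50 from displacement curves by nonlinear regression, converted to Ki by Cheng–Prusoff.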

[4] = molecular target: T2, rat mGluR5 (Rattus norvegicus, UniProt P31424); test: MGluR5 receptor binding test ([3H]-M-MPEP displacement, rat cerebro-cortical membrane preparation); details: rat mGluR5, [3H]-M-MPEP 2 nM; read-out: mGlu5 Ki
T2 construct: Rat cerebro-cortical membrane preparation was used; from tissue; host or cells: rat cerebral cortex (membrane preparation)
Description: Rat cerebro-cortical membrane preparation was used to determine the binding characteristics of reference compounds and novel compounds to the rat mGluR5. The A18 cell line expressing hmGluR5a (purchased from Euroscreen) was used to determine binding characteristics of the chemical compounds to the human mGluR5a receptor. [3H]-M-MPEP (2 nM) was used as radioligand. The nonspecific binding was determined in the presence of 10 μM M-MPEP.

T1 sequence (P23385 19-1199): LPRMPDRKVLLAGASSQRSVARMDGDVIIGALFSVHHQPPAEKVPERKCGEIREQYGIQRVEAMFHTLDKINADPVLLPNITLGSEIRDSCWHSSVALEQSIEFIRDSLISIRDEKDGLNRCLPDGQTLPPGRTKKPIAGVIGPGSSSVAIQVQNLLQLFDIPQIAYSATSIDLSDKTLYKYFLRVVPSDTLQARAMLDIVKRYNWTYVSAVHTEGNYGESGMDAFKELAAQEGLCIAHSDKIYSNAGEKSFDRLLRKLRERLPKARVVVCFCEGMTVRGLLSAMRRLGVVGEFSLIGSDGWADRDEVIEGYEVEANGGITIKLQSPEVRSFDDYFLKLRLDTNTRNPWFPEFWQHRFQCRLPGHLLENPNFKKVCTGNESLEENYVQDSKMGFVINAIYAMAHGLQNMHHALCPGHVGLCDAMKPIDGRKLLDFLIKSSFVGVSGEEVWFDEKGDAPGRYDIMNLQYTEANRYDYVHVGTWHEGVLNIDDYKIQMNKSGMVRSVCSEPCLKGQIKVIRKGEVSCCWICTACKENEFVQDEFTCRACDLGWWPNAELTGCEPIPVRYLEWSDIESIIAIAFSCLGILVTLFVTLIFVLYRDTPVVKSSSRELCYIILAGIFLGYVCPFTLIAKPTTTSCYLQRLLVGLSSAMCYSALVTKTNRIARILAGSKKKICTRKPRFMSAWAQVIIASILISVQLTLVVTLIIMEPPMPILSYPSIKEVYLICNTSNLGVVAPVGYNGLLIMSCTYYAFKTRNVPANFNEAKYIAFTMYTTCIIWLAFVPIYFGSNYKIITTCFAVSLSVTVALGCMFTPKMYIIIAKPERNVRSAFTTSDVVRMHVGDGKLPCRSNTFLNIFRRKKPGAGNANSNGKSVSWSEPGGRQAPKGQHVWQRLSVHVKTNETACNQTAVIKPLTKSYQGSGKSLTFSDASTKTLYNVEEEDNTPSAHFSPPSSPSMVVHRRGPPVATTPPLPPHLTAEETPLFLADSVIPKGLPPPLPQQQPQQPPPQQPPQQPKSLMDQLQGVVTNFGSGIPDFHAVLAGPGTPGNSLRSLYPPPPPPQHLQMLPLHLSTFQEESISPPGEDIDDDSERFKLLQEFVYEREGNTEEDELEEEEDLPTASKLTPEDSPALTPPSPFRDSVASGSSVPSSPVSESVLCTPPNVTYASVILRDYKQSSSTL
T2 sequence (P31424 21-1203): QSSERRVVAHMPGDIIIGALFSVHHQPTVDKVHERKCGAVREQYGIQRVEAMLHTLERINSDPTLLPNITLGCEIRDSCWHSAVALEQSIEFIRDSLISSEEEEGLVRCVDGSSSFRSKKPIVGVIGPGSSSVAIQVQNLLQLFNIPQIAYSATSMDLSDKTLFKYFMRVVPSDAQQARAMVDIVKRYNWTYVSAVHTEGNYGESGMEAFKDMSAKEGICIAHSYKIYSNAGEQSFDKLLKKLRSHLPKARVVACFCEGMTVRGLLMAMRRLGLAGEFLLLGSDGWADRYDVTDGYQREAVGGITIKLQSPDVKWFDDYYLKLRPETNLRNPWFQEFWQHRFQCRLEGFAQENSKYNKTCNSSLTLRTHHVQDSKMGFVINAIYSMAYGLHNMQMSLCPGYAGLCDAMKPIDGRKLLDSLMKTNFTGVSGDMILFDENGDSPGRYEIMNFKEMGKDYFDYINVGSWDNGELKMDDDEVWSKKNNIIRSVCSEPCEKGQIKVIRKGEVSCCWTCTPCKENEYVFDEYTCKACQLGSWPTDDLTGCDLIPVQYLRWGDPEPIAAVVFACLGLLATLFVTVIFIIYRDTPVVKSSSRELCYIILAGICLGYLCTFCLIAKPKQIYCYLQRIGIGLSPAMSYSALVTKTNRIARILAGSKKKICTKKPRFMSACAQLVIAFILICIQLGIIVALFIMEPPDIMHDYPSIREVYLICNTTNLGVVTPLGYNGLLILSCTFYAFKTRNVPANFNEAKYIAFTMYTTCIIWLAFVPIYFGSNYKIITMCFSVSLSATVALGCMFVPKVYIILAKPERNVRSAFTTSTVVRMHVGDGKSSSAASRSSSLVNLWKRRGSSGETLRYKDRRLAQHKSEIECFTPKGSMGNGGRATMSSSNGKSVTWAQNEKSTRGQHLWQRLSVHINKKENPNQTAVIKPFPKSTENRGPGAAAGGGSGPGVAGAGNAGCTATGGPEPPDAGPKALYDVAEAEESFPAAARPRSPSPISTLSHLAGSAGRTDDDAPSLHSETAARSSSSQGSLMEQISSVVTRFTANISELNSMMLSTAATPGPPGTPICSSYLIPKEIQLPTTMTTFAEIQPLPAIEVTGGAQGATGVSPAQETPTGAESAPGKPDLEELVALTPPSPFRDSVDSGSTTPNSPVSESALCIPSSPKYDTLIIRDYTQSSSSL
Chain of mGluR5 receptors (P41594 21-1212): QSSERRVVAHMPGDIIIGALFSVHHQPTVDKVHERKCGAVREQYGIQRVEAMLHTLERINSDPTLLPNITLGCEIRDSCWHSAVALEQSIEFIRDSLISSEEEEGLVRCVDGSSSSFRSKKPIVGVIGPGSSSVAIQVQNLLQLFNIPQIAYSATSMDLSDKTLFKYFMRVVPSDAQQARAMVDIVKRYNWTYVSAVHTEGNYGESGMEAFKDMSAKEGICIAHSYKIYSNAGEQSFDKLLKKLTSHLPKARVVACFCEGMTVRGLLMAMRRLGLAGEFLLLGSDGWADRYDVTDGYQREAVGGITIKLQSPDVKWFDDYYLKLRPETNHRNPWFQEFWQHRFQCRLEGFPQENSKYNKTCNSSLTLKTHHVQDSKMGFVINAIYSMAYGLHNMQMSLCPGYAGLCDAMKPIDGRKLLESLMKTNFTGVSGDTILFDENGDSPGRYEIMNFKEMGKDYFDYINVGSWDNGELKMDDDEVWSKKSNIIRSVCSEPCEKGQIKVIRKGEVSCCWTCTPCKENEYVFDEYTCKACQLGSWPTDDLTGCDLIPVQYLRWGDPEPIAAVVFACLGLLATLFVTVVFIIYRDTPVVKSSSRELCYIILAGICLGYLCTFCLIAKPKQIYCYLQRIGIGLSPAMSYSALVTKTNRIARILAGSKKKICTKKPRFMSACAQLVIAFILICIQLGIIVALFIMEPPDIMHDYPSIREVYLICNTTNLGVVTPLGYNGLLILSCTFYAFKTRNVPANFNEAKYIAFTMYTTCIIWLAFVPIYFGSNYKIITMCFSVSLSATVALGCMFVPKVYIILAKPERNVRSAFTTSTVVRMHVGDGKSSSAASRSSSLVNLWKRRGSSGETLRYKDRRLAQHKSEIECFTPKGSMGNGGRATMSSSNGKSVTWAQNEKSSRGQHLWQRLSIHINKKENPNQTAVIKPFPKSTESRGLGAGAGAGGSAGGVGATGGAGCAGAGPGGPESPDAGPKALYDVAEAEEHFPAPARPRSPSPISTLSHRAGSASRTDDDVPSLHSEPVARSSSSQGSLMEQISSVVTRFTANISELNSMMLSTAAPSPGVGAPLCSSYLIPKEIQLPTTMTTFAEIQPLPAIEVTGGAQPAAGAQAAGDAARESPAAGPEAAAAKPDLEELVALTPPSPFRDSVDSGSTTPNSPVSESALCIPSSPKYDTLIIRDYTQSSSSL
Chain of mGluR1 receptors (Q13255 19-1194): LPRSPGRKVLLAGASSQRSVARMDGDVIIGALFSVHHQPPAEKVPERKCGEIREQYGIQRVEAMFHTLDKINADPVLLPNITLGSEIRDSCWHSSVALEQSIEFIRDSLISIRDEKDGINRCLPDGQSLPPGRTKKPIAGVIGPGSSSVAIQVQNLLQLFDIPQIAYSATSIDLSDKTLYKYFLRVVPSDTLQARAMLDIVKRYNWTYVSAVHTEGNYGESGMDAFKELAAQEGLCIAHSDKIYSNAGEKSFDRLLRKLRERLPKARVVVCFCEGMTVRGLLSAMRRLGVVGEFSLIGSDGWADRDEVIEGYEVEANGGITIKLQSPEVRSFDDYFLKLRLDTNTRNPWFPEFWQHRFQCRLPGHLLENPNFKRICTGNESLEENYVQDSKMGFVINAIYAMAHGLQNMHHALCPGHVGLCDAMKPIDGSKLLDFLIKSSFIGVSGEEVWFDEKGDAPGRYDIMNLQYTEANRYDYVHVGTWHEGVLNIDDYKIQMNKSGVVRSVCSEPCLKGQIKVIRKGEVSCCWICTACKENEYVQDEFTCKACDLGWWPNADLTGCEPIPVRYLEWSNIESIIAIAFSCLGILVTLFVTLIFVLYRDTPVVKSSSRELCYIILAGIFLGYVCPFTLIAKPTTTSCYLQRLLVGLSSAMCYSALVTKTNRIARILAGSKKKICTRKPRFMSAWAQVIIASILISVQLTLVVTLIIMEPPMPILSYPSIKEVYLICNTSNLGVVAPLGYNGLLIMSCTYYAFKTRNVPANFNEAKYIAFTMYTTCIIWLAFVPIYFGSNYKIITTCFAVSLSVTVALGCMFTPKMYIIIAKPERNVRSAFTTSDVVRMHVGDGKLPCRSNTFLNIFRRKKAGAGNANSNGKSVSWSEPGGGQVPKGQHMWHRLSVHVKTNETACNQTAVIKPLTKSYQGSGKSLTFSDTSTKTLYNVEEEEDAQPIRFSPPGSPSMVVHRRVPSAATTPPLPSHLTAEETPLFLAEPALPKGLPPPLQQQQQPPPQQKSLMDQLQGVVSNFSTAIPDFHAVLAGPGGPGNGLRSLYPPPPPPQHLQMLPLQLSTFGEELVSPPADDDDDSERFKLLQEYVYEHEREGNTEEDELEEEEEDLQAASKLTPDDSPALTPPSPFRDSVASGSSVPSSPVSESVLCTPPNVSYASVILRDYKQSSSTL

Structure (SMILES): O=S(=O)(c1ccccc1)c1cnc2c(C(F)(F)F)cccc2c1-c1ccccc1 [3-benzenesulfonyl-4-phenyl-8-trifluoromethyl-quinoline]
- activity on mGluR1 receptors [1]: inactive
- activity on mGluR5 receptors [2]: inactive

Structure (SMILES): Cc1ccc(S(=O)(=O)c2cnc3cc(F)ccc3c2-c2cccc(Cl)c2)cc1C [Compound 17, 4-(3-chloro-phenyl)-3-(3,4-dimethyl-benzenesulfonyl)-7-fluoro-quinoline]
- Ki [3]: > 0.5 µM
- Ki [4]: < 0.2 µM

Structure (SMILES): Cc1ccc(S(=O)(=O)c2cnc3ccc(F)cc3c2-c2cccc(F)c2)cc1C [Compound 146]
- Ki [3]: > 0.5 µM
- Ki [4]: < 0.2 µM

Structure (SMILES): Cc1ccc(S(=O)(=O)c2cnc3c(F)cccc3c2-c2cccc(F)c2)cc1F [Compound 111]
- Ki [3]: > 0.5 µM
- Ki [4]: < 0.2 µM

Structure (SMILES): COc1ccc(S(=O)(=O)c2cnc3ccc(F)cc3c2-c2cccc(Cl)c2)cc1OC [Compound 70]
- Ki [3]: > 0.5 µM
- Ki [4]: > 0.5 µM

Structure (SMILES): COc1cccc(-c2c(S(=O)(=O)c3cc(F)cc(F)c3)cnc3ccc(F)cc23)c1 [Compound 134]
- Ki [3]: > 0.5 µM
- Ki [4]: 0.2 to 0.5 µM

Structure (SMILES): O=S(=O)(c1ccc(F)cc1)c1cnc2c(F)cccc2c1-c1cccc(F)c1 [Compound 22]
- Ki [3]: 0.2 to 0.5 µM
- Ki [4]: < 0.2 µM

Structure (SMILES): N#Cc1cc(F)cc(S(=O)(=O)c2cnc3c(N)cccc3c2-c2ccc(F)cc2)c1 [Compound 278]
- Ki [3]: > 0.5 µM
- Ki [4]: < 0.2 µM

Structure (SMILES): O=S(=O)(c1cc(Cl)cc(Cl)c1)c1cnc2ccc(F)cc2c1-c1cccc(Cl)c1 [Compound 160]
- Ki [3]: > 0.5 µM
- Ki [4]: < 0.2 µM

Structure (SMILES): N#Cc1cccc(S(=O)(=O)c2cnc3cc(Cl)ccc3c2-c2ccc(F)cc2)c1 [Compound 241]
- Ki [3]: 0.2 to 0.5 µM
- Ki [4]: < 0.2 µM

Structure (SMILES): O=S(=O)(c1ccc(F)c(Cl)c1)c1cnc2cc(Cl)ccc2c1-c1cc(F)cc(F)c1 [Compound 262]
- Ki [3]: < 0.2 µM
- Ki [4]: < 0.2 µM

Structure (SMILES): O=S(=O)(c1ccc(Cl)s1)c1cnc2cc(Cl)ccc2c1-c1ccc(F)cc1 [Compound 187]
- Ki [3]: > 0.5 µM
- Ki [4]: 0.2 to 0.5 µM

Structure (SMILES): COc1ccc(S(=O)(=O)c2cnc3cc(F)ccc3c2-c2cccc(Cl)c2)cc1OC [Compound 162]
- Ki [3]: > 0.5 µM
- Ki [4]: > 0.5 µM

Structure (SMILES): COc1cccc(-c2c(S(=O)(=O)c3ccc(C)c(F)c3)cnc3c(F)cccc23)c1 [Compound 113]
- Ki [3]: > 0.5 µM
- Ki [4]: < 0.2 µM

Structure (SMILES): N#Cc1cc(S(=O)(=O)c2cnc3cc(F)ccc3c2-c2ccc(Cl)cc2)ccc1F [Compound 274]
- Ki [3]: > 0.5 µM
- Ki [4]: < 0.2 µM
